# Results published in the NIST ThermoML archive (doi:10.1021/je049721u).
# Numbers after ± are expanded uncertainties.
# Assay: mn = molality of the nth substance listed, in mol/kg
# Details: 101.3 kPa, Liquid; for speed of sound: Pulse-echo method
smiles,measurement,setting,value
[O-][Cl+3]([O-])([O-])[O-].[O-][Cl+3]([O-])([O-])[O-].[Zn+2] [zinc perchlorate] + CN(C)C=O,mass density,"283.15 K, m1 = 0.03554",965.795 ± 0.58 kg/m3
same,mass density,"283.15 K, m1 = 0.04966",968.825 ± 0.58 kg/m3
same,mass density,"283.15 K, m1 = 0.05952",970.955 ± 0.58 kg/m3
same,mass density,"283.15 K, m1 = 0.06946",973.095 ± 0.58 kg/m3
same,mass density,"283.15 K, m1 = 0.1039",980.554 ± 0.58 kg/m3
same,mass density,"283.15 K, m1 = 0.1369",987.781 ± 0.58 kg/m3
same,mass density,"283.15 K, m1 = 0.17",995.118 ± 0.58 kg/m3
same,mass density,"283.15 K, m1 = 0.2038",1002.65 ± 0.58 kg/m3
same,mass density,"283.15 K, m1 = 0.2374",1010.26 ± 0.59 kg/m3
same,mass density,"283.15 K, m1 = 0.2701",1017.77 ± 0.6 kg/m3
same,mass density,"283.15 K, m1 = 0.3002",1024.72 ± 0.61 kg/m3
same,mass density,"283.15 K, m1 = 0.3314",1032.04 ± 0.61 kg/m3
same,mass density,"293.15 K, m1 = 0.03554",956.309 ± 0.59 kg/m3
same,mass density,"293.15 K, m1 = 0.04966",959.347 ± 0.58 kg/m3
same,mass density,"293.15 K, m1 = 0.05952",961.484 ± 0.58 kg/m3
same,mass density,"293.15 K, m1 = 0.06946",963.626 ± 0.58 kg/m3
same,mass density,"293.15 K, m1 = 0.1039",971.105 ± 0.58 kg/m3
same,mass density,"293.15 K, m1 = 0.1369",978.348 ± 0.58 kg/m3
same,mass density,"293.15 K, m1 = 0.17",985.7 ± 0.58 kg/m3
same,mass density,"293.15 K, m1 = 0.2038",993.242 ± 0.58 kg/m3
same,mass density,"293.15 K, m1 = 0.2374",1000.87 ± 0.58 kg/m3
same,mass density,"293.15 K, m1 = 0.2701",1008.39 ± 0.59 kg/m3
same,mass density,"293.15 K, m1 = 0.3002",1015.35 ± 0.6 kg/m3
same,mass density,"293.15 K, m1 = 0.3314",1022.68 ± 0.6 kg/m3
same,speed of sound,"298.15 K, m1 = 0.03554",1459.9 ± 1.4 m/s
same,speed of sound,"298.15 K, m1 = 0.05952",1461.7 ± 1.4 m/s
same,speed of sound,"298.15 K, m1 = 0.06946",1462.5 ± 1.5 m/s
same,speed of sound,"298.15 K, m1 = 0.1039",1465 ± 1.5 m/s
same,speed of sound,"298.15 K, m1 = 0.1369",1467.5 ± 1.5 m/s
same,speed of sound,"298.15 K, m1 = 0.17",1469.6 ± 1.5 m/s
same,speed of sound,"298.15 K, m1 = 0.2038",1472.1 ± 1.5 m/s
same,speed of sound,"298.15 K, m1 = 0.2374",1474.7 ± 1.5 m/s
same,speed of sound,"298.15 K, m1 = 0.2701",1477.2 ± 1.5 m/s
same,speed of sound,"298.15 K, m1 = 0.3002",1479.7 ± 1.5 m/s
same,speed of sound,"298.15 K, m1 = 0.3314",1482.1 ± 1.5 m/s
same,mass density,"298.15 K, m1 = 0.03554",951.555 ± 0.59 kg/m3
same,mass density,"298.15 K, m1 = 0.04966",954.6 ± 0.59 kg/m3
same,mass density,"298.15 K, m1 = 0.05952",956.74 ± 0.59 kg/m3
same,mass density,"298.15 K, m1 = 0.06946",958.885 ± 0.58 kg/m3
same,mass density,"298.15 K, m1 = 0.1039",966.376 ± 0.58 kg/m3
same,mass density,"298.15 K, m1 = 0.1369",973.626 ± 0.58 kg/m3
same,mass density,"298.15 K, m1 = 0.17",980.987 ± 0.58 kg/m3
same,mass density,"298.15 K, m1 = 0.2038",988.537 ± 0.58 kg/m3
same,mass density,"298.15 K, m1 = 0.2374",996.17 ± 0.58 kg/m3
same,mass density,"298.15 K, m1 = 0.2701",1003.7 ± 0.58 kg/m3
same,mass density,"298.15 K, m1 = 0.3002",1010.66 ± 0.59 kg/m3
same,mass density,"298.15 K, m1 = 0.3314",1018.01 ± 0.6 kg/m3
same,mass density,"303.15 K, m1 = 0.03554",946.8 ± 0.59 kg/m3
same,mass density,"303.15 K, m1 = 0.04966",949.85 ± 0.59 kg/m3
same,mass density,"303.15 K, m1 = 0.05952",951.99 ± 0.59 kg/m3
same,mass density,"303.15 K, m1 = 0.06946",954.139 ± 0.59 kg/m3
same,mass density,"303.15 K, m1 = 0.1039",961.642 ± 0.58 kg/m3
same,mass density,"303.15 K, m1 = 0.1369",968.9 ± 0.58 kg/m3
same,mass density,"303.15 K, m1 = 0.17",976.267 ± 0.58 kg/m3
same,mass density,"303.15 K, m1 = 0.2038",983.828 ± 0.58 kg/m3
same,mass density,"303.15 K, m1 = 0.2374",991.474 ± 0.58 kg/m3
same,mass density,"303.15 K, m1 = 0.2701",999.008 ± 0.58 kg/m3
same,mass density,"303.15 K, m1 = 0.3002",1005.98 ± 0.59 kg/m3
same,mass density,"303.15 K, m1 = 0.3314",1013.33 ± 0.59 kg/m3
same,mass density,"313.15 K, m1 = 0.03554",937.255 ± 0.6 kg/m3
same,mass density,"313.15 K, m1 = 0.04966",940.315 ± 0.59 kg/m3
same,mass density,"313.15 K, m1 = 0.05952",942.46 ± 0.59 kg/m3
same,mass density,"313.15 K, m1 = 0.06946",944.619 ± 0.59 kg/m3
same,mass density,"313.15 K, m1 = 0.1039",952.143 ± 0.59 kg/m3
same,mass density,"313.15 K, m1 = 0.1369",959.426 ± 0.59 kg/m3
same,mass density,"313.15 K, m1 = 0.17",966.813 ± 0.58 kg/m3
same,mass density,"313.15 K, m1 = 0.2038",974.394 ± 0.58 kg/m3
same,mass density,"313.15 K, m1 = 0.2374",982.063 ± 0.58 kg/m3
same,mass density,"313.15 K, m1 = 0.2701",989.616 ± 0.58 kg/m3
same,mass density,"313.15 K, m1 = 0.3002",996.605 ± 0.58 kg/m3
same,mass density,"313.15 K, m1 = 0.3314",1003.97 ± 0.59 kg/m3
same,mass density,"323.15 K, m1 = 0.03554",927.66 ± 0.6 kg/m3
same,mass density,"323.15 K, m1 = 0.04966",930.737 ± 0.6 kg/m3
same,mass density,"323.15 K, m1 = 0.05952",932.889 ± 0.6 kg/m3
same,mass density,"323.15 K, m1 = 0.06946",935.058 ± 0.6 kg/m3
same,mass density,"323.15 K, m1 = 0.1039",942.607 ± 0.59 kg/m3
same,mass density,"323.15 K, m1 = 0.1369",949.918 ± 0.59 kg/m3
same,mass density,"323.15 K, m1 = 0.17",957.333 ± 0.59 kg/m3
same,mass density,"323.15 K, m1 = 0.2038",964.934 ± 0.59 kg/m3
same,mass density,"323.15 K, m1 = 0.2374",972.635 ± 0.58 kg/m3
same,mass density,"323.15 K, m1 = 0.2701",980.208 ± 0.58 kg/m3
same,mass density,"323.15 K, m1 = 0.3002",987.212 ± 0.58 kg/m3
same,mass density,"323.15 K, m1 = 0.3314",994.605 ± 0.58 kg/m3
same,mass density,"333.15 K, m1 = 0.03554",918.015 ± 0.61 kg/m3
same,mass density,"333.15 K, m1 = 0.04966",921.108 ± 0.61 kg/m3
same,mass density,"333.15 K, m1 = 0.05952",923.268 ± 0.61 kg/m3
same,mass density,"333.15 K, m1 = 0.06946",925.449 ± 0.6 kg/m3
same,mass density,"333.15 K, m1 = 0.1039",933.036 ± 0.6 kg/m3
same,mass density,"333.15 K, m1 = 0.1369",940.371 ± 0.6 kg/m3
same,mass density,"333.15 K, m1 = 0.17",947.816 ± 0.59 kg/m3
same,mass density,"333.15 K, m1 = 0.2038",955.438 ± 0.59 kg/m3
same,mass density,"333.15 K, m1 = 0.2374",963.178 ± 0.59 kg/m3
same,mass density,"333.15 K, m1 = 0.2701",970.777 ± 0.59 kg/m3
same,mass density,"333.15 K, m1 = 0.3002",977.794 ± 0.59 kg/m3
same,mass density,"333.15 K, m1 = 0.3314",985.215 ± 0.58 kg/m3
